The values below come from patent publication US20100256145A1, “USE OF KCNQ POTASSIUM CHANNEL OPENERS FOR REDUCING SYMPTOMS OF OR TREATING DISORDERS OR CONDITIONS WHEREIN THE DOPAMINERGIC SYSTEM IS DISRUPTED” (H. LUNDBECK A/S, priority 2007, published 2010).

Data set [1] concerns d-amphetamine induced hyperactivity in rats. Kind of data set: Amphetamine-induced hyperactivity in the rat (amphetamine antagonism). The following applies: read-out: Amphetamine antagonism ED50 (mg/kg) ± std. dev. Type of data set: in vivo. An excerpt:
Subjects. Male Wistar rats (Taconic, Denmark) weighing 170-240 g are used. […] Eight rats are used at each dose level and in the parallel control group receiving the vehicle to the test compound plus d-amphetamine and the group receiving vehicle injections only.

The test system of data set [2] is conditioned avoidance response. Kind of data set: Conditioned avoidance response in rats. Format: in vivo, rat. The procedure:
Subjects. Male Wistar rats (Taconic, Denmark) weighing 150 g at the beginning of the study are used. The rats are housed in pairs and maintained on a 12 h light/dark cycle (lights on 06:00). The animals are fed once daily (approx. 6 pellets/rat) in order to keep the rats at 80% of their free-feeding weight. Water is available ad libitum. Temperature (21±1° C.) and relative humidity (55±5%) are automatically controlled.
Experimental procedure. Conditioned avoidance testing is conducted using four automated shuttle-boxes (ENV-010M, MED-Associates) each placed in a sound-attenuated chamber. Each box is divided into two compartments by a partition with an opening. The position of the animal and crossings from one compartment to the other are detected by two photocells placed on either side of the dividing wall. Upon presentation of the conditioned stimuli (CS), tone and light, the animals have 10s to cross to the other compartment of the shuttle-box in order to turn the CS off (end the trial) and avoid the appearance of the unconditioned stimulus (UCS). If the rat remains in the same compartment for more than 10s, the UCS is presented as 0.5 mA scrambled foot-shocks until escape is performed or 10s in maximal duration. The following behavioural variables are evaluated: avoidance (response to CS within 10s); escape (reponse to CS+UCS); escape failures (failure to respond); intertrial crosses and locomotor activity. The rats are habituated to the shuttle-box 3 min before each test session. During training each test session consists of 30 trials with intertrial intervals varying randomly between 20s and 30s. Training is carried out until the rats display an avoidance of 80% or more, on 3 consecutive days. A test is preceded by a pre-test the day before giving rise to a baseline value for each animal, thus the animals serve as their own control. Seven to eight rats are used at each dose level. A parallel control group receiving the vehicle of the test compound is also included.
Administration of compound. […] All compounds are dissolved in a vehicle of 10% 2-hydroxy-propyl-beta-cyclodextrin (isotonic with glucose, pH 5-7).
Statistical analyses. The effects of compounds on avoidance and escape failure behaviours are statistically evaluated by means of two-way repeated measures ANOVA followed by post hoc comparisons (Student-Newman-Keuls Method) when appropriate. P-levels <0.05 are considered statistically significant.

Setting [3] is: Rattus norvegicus, sc, read-out: % inhibition of avoidance (Std. dev.) Relative to baseline.

Usually inhibition stands for the percentage by which the read-out fell short of the control. For the compound `CCOC(=O)Nc1ccc(NCc2ccc(F)cc2)cc1N` [Compound 1, reference compound], in data set [1], the ED50 was 2.3 mg/kg. In data set [2] (setting [3]), the inhibition at 5 mg/kg is 1% and the inhibition at 10 mg/kg is 59%. In addition, the “Escape failures (effect on motor performance)” value in data set [2] (rats, all tested doses (2.5-10 mg/kg s.c.), data not shown) is listed as “None of the tested doses cause any incidences of escape failures”.
